Data as given in patent US20080171760A1, “SPIROPIPERIDINE GLYCINAMIDE DERIVATIVES” (priority 2007, published 2008).

Molecular target: T1, human V1a receptor (Homo sapiens, UniProt P37288)
T1 construct: expressed in transfected cells; host or cells: HEK293 cells, transiently transfected; cell membranes
Test: human V1a receptor binding study (3H-Vasopressin, SPA beads)
Details: membranes of HEK293 cells transiently transfected with human V1a receptor, Ki calculated using the Cheng-Prussoff equation, read-out: pKi hV1a (converted)
Procedure: The human V1a receptor was cloned by RT-PCR from total human liver RNA. The coding sequence was subcloned in an expression vector after sequencing to confirm the identity of the amplified sequence. […] Cell membranes were prepared from HEK293 cells transiently transfected with the expression vector and grown in 20 liter fermenters with the following protocol.
50 g of cells were resuspended in 30 ml freshly prepared ice cold Lysis buffer (50 mM HEPES, 1 mM EDTA, 10 mM MgCl2 adjusted to pH=7.4+complete cocktail of protease inhibitor (Roche Diagnostics)), homogenized with Polytron for 1 min, and sonicated on ice for 2×2 minutes at 80% intensity (Vibracell sonicator). The preparation was centrifuged 20 min at 500 g at 4° C., the pellet was discarded and the supernatant centrifuged 1 hour at 43,000 g at 4° C. (19,000 rpm). The pellet was resuspended in 12.5 ml Lysis buffer+12.5 ml Sucrose 20% and homogenized using a Polytron for 1-2 min. The protein concentration was determined by the Bradford method and aliquots are stored at −80° C. until use. For binding studies 60 mg Yttrium silicate SPA beads (Amersham) were mixed with an aliquot of membrane in binding buffer (50 mM Tris, 120 mM NaCl, 5 mM KCl, 2 mM CaCl2, 10 mM MgCl2) for 15 minutes with mixing. 50 ul of bead/membrane mixture was then added to each well of a 96 well plate, followed by 50 ul of 4 nM 3H-Vasopressin (American Radiolabeled Chemicals). For total binding measurement 100 ul of binding buffer were added to the respective wells, for non-specific binding 100 ul of 8.4 mM cold vasopressin and for compound testing 100 ul of a serial dilution of each compound in 2% DMSO. The plate was incubated 1 h at room temperature, centrifuged 1 min at 1000 g and counted on a Packard Top-Count. Non-specific binding counts were subtracted from each well and data was normalized to the maximum specific binding set at 100%. To calculate an IC 50 the curve was fitted using a non-linear regression model (XLfit) and the Ki is calculated using the Cheng-Prussoff equation.

T1 sequence (P37288 whole entry): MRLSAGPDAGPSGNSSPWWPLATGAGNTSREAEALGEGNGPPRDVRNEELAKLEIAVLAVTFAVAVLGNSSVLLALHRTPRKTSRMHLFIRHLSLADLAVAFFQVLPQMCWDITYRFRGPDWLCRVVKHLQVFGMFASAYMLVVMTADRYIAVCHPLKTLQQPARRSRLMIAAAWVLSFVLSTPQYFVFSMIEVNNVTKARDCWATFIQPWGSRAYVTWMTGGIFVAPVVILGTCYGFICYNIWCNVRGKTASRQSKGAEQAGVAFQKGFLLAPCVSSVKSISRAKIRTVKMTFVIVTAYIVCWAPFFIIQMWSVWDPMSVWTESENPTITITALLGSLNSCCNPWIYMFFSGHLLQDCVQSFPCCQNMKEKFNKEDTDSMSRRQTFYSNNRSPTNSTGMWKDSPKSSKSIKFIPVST

Ki | SMILES
42.7 nM | O=C1OC2(CCN(C(=O)CNC(c3ccccc3)c3ccccc3)CC2)c2ccccc21 [Example 92, 1′-[N-(Diphenylmethyl)glycyl]-3H-spiro[2-benzofuran-1,4′-piperidin]-3-one]
14.8 nM | O=C(CNC(c1ccccc1)c1cccc(Cl)c1)N1CCC2(CC1)OCc1ccccc12 (racemic) [Example 8, (RS)—N-[(3-Chlorophenyl)(phenyl)methyl]-2-oxo-2-(1′H,3H-spiro[2-benzofuran-1,4′-piperidin]-1′-yl)ethanamine]
18.2 nM | O=C(CNC(c1ccccc1)c1ccccn1)N1CCC2(CC1)OCc1ccccc12 (racemic) [Example 27, (RS)-2-Oxo-N-[phenyl(pyridin-2-yl)methyl]-2-(1′H,3H-spiro[2-benzofuran-1,4′-piperidin]-1′-yl)ethanamine]
23.4 nM | Cc1n[nH]c(C)c1C(NCC(=O)N1CCC2(CC1)OCc1ccccc12)c1ccccc1 (racemic) [Example 30, (RS)—N-[(3,5-Dimethyl-1H-pyrazol-4-yl)(phenyl)methyl]-2-oxo-2-(1′H,3H-spiro[2-benzofuran-1,4′-piperidin]-1′-yl)ethanamine]
42.7 nM | O=C(Nc1ccc(Cl)cc1)[C@H](NCC(=O)N1CCC2(CC1)OCc1ccccc12)c1ccccc1 [Example 31, (2R)—N-(4-Chlorophenyl)-2-{[2-oxo-2-(1′H,3H-spiro[2-benzofuran-1,4′-piperidin]-1′-yl)ethyl]amino}-2-phenylacetamide]
14.5 nM | O=C(CNC(c1ccccc1)c1cc(Cl)ccc1O)N1CCC2(CC1)OCc1ccccc12 (racemic) [Example 37, (RS)-4-Chloro-2-[{[2-oxo-2-(1′H,3H-spiro[2-benzofuran-1,4′-piperidin]-1′yl)ethyl]amino}(phenyl)methyl]phenol]
30.2 nM | O=C(CNC(c1ccccc1)c1cccc(C(F)(F)F)c1)N1CCC2(CC1)OCc1ccccc12 (racemic) [Example 12, (RS)-2-Oxo-N-{phenyl[3-(trifluoromethyl)phenyl]methyl}-2-(1′H,3H-spiro[2-benzofuran-1,4′-piperidin]-1′-yl)ethanamine]
8.51 nM | O=C(CNC(c1cccc(Cl)c1)c1ncco1)N1CCC2(CC1)OCc1ccccc12 (racemic) [Example 68, (RS)—N-[(3-Chlorophenyl) (1,3-oxazol-2-yl)methyl]-2-oxo-2-(1′H,3H-spiro [2-benzofuran-1,4′-piperidin]-1′-yl)ethanamine]
79.4 nM | O=C(CN[C@@H](C(=O)N1CC(O)C1)c1ccccc1)N1CCC2(CC1)OCc1ccccc12 [Example 71, 1-[(2R)-2-{[2-Oxo-2-(1′H,3H-spiro[2-benzofuran-1,4′-piperidin]-1′-yl)ethyl]amino}-2-phenylacetyl]azetidin-3-ol]
28.2 nM | CN(CC(=O)N1CCC2(CC1)OCc1ccccc12)C(c1ccccc1)c1ccccc1 [Example 93, N-(Diphenylmethyl)-N-methyl-2-oxo-2-(1′H,3H-spiro[2-benzofuran-1,4′-piperidin]-1′-yl)ethanamine]
11.7 nM | O=C(CNC(c1ccccc1)c1ccccc1)N1CCC2(CC1)OCc1ccccc12 [Example 6, N-(Diphenylmethyl)-2-oxo-2-(1′H,3H-spiro[2-benzofuran-1,4′-piperidin]-1′-yl)ethanamine]
29.5 nM | O=C(CNC(c1ccc(F)cc1)c1cccc(C(F)(F)F)c1)N1CCC2(CC1)OCc1ccccc12 (racemic) [Example 13, (RS)—N-{(4-Fluorophenyl)[3-(trifluoromethyl)phenyl]methyl}-2-oxo-2-(1′H,3H-spiro[2-benzofuran-1,4′-piperidin]-1′-yl)ethanamine]
26.3 nM | CC(O)(c1ccncc1)C(NCC(=O)N1CCC2(CC1)OCc1ccccc12)c1ccc(Cl)cc1 (stereo not shown) [Example 52, 1-(4-Chlorophenyl)-1-{[2-oxo-2-(1′H,3H-spiro[2-benzofuran-1,4-piperidin]-1′-yl)ethyl]amino}-2-pyridin-4-ylpropan-2-ol]
18.6 nM | C[C@](O)(c1ccccn1)[C@H](NCC(=O)N1CCC2(CC1)OCc1ccccc12)c1ccc(Cl)cc1 (racemic) [Example 49, (1RS,2RS)-1-(4-Chlorophenyl)-1-{[2-oxo-2-(1′H,3H-spiro[2-benzofuran-1,4′-piperidin]-1′-yl)ethyl]amino}-2-pyridin-2-yl-propan-2-ol]
14.5 nM | O=C(CNC(c1ccccc1)c1ccc(Cl)c(Cl)c1)N1CCC2(CC1)OCc1ccccc12 (racemic) [Example 9, (RS)—N-[(3,4-Dichlorophenyl)(phenyl)methyl]-2-oxo-2-(1′H,3H-spiro[2-benzofuran-1,4′-piperidin]-1′-yl)ethanamine]
9.12 nM | O=C(CNC(c1ccccc1)c1cccs1)N1CCC2(CC1)OCc1ccccc12 (racemic) [Example 20, (RS)-2-Oxo-N-[phenyl(2-thienyl)methyl]-2-(1′H,3H-spiro[2-benzofuran-1,4′-piperidin]-1′-yl)ethanamine]
20.9 nM | O=C(CNC(c1ccccc1)c1ccc(C(F)(F)F)cc1)N1CCC2(CC1)OCc1ccccc12 (racemic) [Example 18, (RS)-2-Oxo-N-{phenyl[4-(trifluoromethyl)phenyl]methyl}-2-(1′H,3H-spiro[2-benzofuran-1,4′-piperidin]-1′-yl)ethanamine]
20.4 nM | O=C(CN[C@@H](c1ccccc1)c1ccc(Cl)cc1)N1CCC2(CC1)OCc1ccccc12 (single isomer, unassigned) [Example 4, N-[(+)-(4-chlorophenyl)(phenyl)methyl]-2-oxo-2-(1′H,3H-spiro[2-benzofuran-1,4′-piperidin]-1′-yl)ethanamine]
9.12 nM | O=C(CNC(c1ccccc1)c1ccc(Cl)cc1)N1CCC2(CC1)OCc1ccccc12 (racemic) [Example 2, (RS)—N-[(4-Chlorophenyl)(phenyl)methyl]-2-oxo-2-(1′H,3H-spiro[2-benzofuran-1,4′-piperidin]-1′-yl)ethanamine]
24 nM | O=C(CN[C@H](c1ccc(Cl)cc1)[C@@H](O)c1ccc(N2CCOCC2)cc1)N1CCC2(CC1)OCc1ccccc12 [Example 46]
15.8 nM | O=C(CNC(c1ccc(F)cc1)c1cccs1)N1CCC2(CC1)OCc1ccccc12 (racemic) [Example 29, (RS)—N-[(4-Fluorophenyl)(2-thienyl)methyl]-2-oxo-2-(1′H,3H-spiro[2-benzofuran-1,4′-piperidin]-1′-yl)ethanamine]
18.6 nM | Cc1cccc(C(NCC(=O)N2CCC3(CC2)OCc2ccccc23)c2ccccc2)c1 (racemic) [Example 34, (RS)—N-[(3-Methylphenyl)(phenyl)methyl]-2-oxo-2-(1′H,3H-spiro[2-benzofuran-1,4′-piperidin]-1′-yl)ethanamine]
